Assays:
Type in all cases: cell-based, human
RELA KO MES-hGICs = test: FACS quantification of MGT #1 in RELA KO MES-hGICs; details: polyclonal and monoclonal RELA KO cells
Description: (§1) FACS analysis: Analysis was performed with FlowJo_V10.
Canonical NFkB activation can occur downstream TNFα signaling as well as by non-canonical genotoxic stress.

A549-MGT #1low cells = test: Cytokine screening, microplate reader MGT #1 fluorescence; details: cytokine alone
Description: Phenotypic screening: Tumor cells were propagated as described above until the screening. Then we seeded 15′000/50 μl/well in 384 well plates (Corning), in Gibco FluoroBrite DMEM medium supplemented with the appropriate growth factors. Cells were dispensed as 50 μl suspension into each well using the SPARK20M Injector system (50 μl injection volume; 100 μl/s injection speed). For non-adherent cells (e.g. GICs), cells were further centrifuge at 1500 rpm for 1 h30 min at 37° C. Bottom reading fluorescence was scanned using a SPARM 20M TECAN plate reader at 37° C. in a 5% CO2-95% air (3% for GICs) in a humidified cassette, with the following settings for mVenus: Monochromator, Ex 505 nm±20 nm, Em 535 nm±7.5 nm, manual gain:198, flashes: 35, Integration time:40 μs. In independent replicas, cell viability was measured with 0.02% AlamarBlue solution in FluoroBrite medium with the following settings: Fluorescence Top reading. Monochromator, Ex 565 nm±10 nm, Em 592 nm±10 nm, manual gain: 88, flashes: 30, Integration time:40 μs.
DMSO-soluble compounds such as GSK126, were robotically aliquoted using a D300e, whereas cytokines were robotically aliquoted to each well using an Andrew pipetting robot (AndrewAlliance), using the following concentrations:
To exploit Ezh2 inhibition and MGT #1 as a framework to clarify the signaling basis of EMT in NSCLC cells, we next performed a cytokine screening in GSK126- and vehicle-treated A549-MGT #1^low cells.

MES-hGICs-MGT #1low = test: FACS of MGT #1 response to TNFα; details: equal basal MGT #1 levels by FACS sorting
Description: as §1
(§2) FACS sorting: Transduced hGICs were harvested into single cell suspensions and resuspended into cold RHB-A complete and filtered into FACS tubes. Sorting was conducted using BD FACSAria III or Fusion. The appropriate laser-filter combinations were chosen depending on the fluorophores being sorted for. Typically, to remove dead cells, events were first gated on the basis of shape and granularity (FSC-A vs. SSC-A) and doublets were excluded (FSC-A vs. FSC-H). Positive gates were established on PGK-driven and constitutively expressed H2B-CFP as sorting reporter, to sort for populations with low to medium intensity of sLCR-dependent fluorophore expression.
(§3) Next, near-isogenic and characterized MES-hGICs and PN-hGICs were transduced with MGT #1 lentiviral particles. PN-hGICs bear a combination of IDH1 and TP53 point mutations, which is only found in PN GBM, whereas MES-hGICs have triple knockdown of TP53, PTEN and NF1, featuring a MES GBM background. […] As TNFa is considered a prominent MES-GBM signaling pathway, and can induce a PN-to-MES transition^20, we next tested whether MGT #1 is faithfully reproducing a MES GBM signaling by exposing either MES-hGICs-MGT #1^low and PN-hGICs-MGT #1^low W to TNFα. […] Reassuringly, TNFα induced a fluorescence increase in both cell types as compared to each parental control.

PN-hGICs-MGT #1low = test: FACS of MGT #1 response to TNFα; details: equal basal MGT #1 levels by FACS sorting
Description: as §1, §2, §3

[1] = test system: MES-hGICs-MGT #1low and PN-hGICs-MGT #1low cells; test: Immunoblotting of signaling pathway activation; details: both cell types
Description: Immunoblot: Cell pellets were lysed in RIPA buffer (20 mM Tris-HCl pH7.5, 150 mM NaCl, 1 mM EDTA, 1 mM EGTA, 1% NP-40) supplemented with a 1× Protease inhibitor cocktail (Roche), 10 mM NaPPi, 10 mM NaF, and 1 mM Sodium orthovanadate. The lysates were sonicated if necessary, and electrophoresis was performed using NuPAGE Bis-Tris precast gels (Life Technologies) in NuPAGE MOPS SDS Running Buffer (50 mM MOPS, 50 mM Tris Base, 0.1% SDS, 1 mM EDTA). Protein was transferred onto Nitrocellulose membranes in transfer buffer (25 mM Tris-HCl pH 7.5, 192 mM Glycine, 20% Methanol) at 120 mA for 1 h. Protein transfer was assessed through staining with Ponceau Red for 5 min, following two washes with TBS-T. Blocking of membranes was done for 1 h at room temperature with 5% BSA in PBS. Dilutions of primary antibodies were prepared in PBS+5% BSA and membranes were incubated over night at 4° C. Following three washes for 5 min with TBS-T, dilutions of appropriate HRP-coupled secondary antibodies were prepared in PBS+5% BSA and membranes were incubated for 45 min at room temperature. After washing three times for 5 min with TBS-T, ECL detection reagent (Sigma; RPN2209) was applied and membranes were exposed to ECL Hyperfilms (Sgima; GE28-9068-37) to detect chemoluminescent signals. […]

[2] = test system: MES-hGICs-MGT #1low and PN-hGICs-MGT #1low cells; test: FACS quantification of Mesenchymal transdifferentiation after Ionizing Radiation and TNFα; details: TNFα combined with IR 10 Gy
Description: Irradiation of hGICs: Irradiation was delivered using the XenX irradiator platform (XStrahl Life Sciences), equipped with a 225 kV X-ray tube for targeted irradiation. hGICs cultured in either 6-well plates or 96-well plates were placed in the focal plane of the beamline and exposed to irradiation for a specific time, depending on the target dosage, as calculated with an internal calculation software.
Mesenchymal Differentiation in GBM was originally described as a dominant event at recurrence after radiotherapy^19 and later linked to acquired radio-resistance via TNF-driven NFKB activation^20. Repeatedly, correlative evidences support a link between inflammatory signaling, EMT and radio-resistance^34. To functionally test whether irradiation may induce Mesenchymal transdifferentiation in cell autonomous manner, MES-hGICs-MGT #1^low and PN-hGICs-MGT #1^low cells were exposed to Ionizing Radiation (IR), alone or in combination with TNFα. […] The residual DNA damage marker […] phosphorylation twenty-four hours post irradiation confirmed the occurrence of both double-strand breaks and repair. However, only a minor proportion of GICs turned to a MGT #1^high state from either genetic background (FIG. 2g-h). […] The data also support the speculation that NFKB activation is augmented as a result of non-canonical signaling caused by genotoxic stress^36.

With TNFα the “ability to induce MES-GBM signaling” value (RELA KO MES-hGICs) was “markedly impaired”, the “MGT #1 expression, fluorescence output” value (A549-MGT #1low cells) was “leading signaling towards MGT #1 expression” and the “MGT #1 expression level after TNFα” value (MES-hGICs-MGT #1low) was “turned into MES-hGICs-MGT #1^high”. The “MGT #1 expression level after TNFα” value (PN-hGICs-MGT #1low) was “only reached PN-hGICs-MGT #1^med levels”, the “phosphorylation of signaling proteins” value [1] was “induced phosphorylation of NFkB-p65, STAT3 and p38-MAPK” and the “Mesenchymal differentiation (MGT #1high)” value [2] was “augmented Mesenchymal differentiation”.

Source: US20210343368A1, “Method for Engineering Synthetic Cis-Regulatory DNA” (Max-Delbrück-Centrum für Molekulare Medizin in der …, priority 2018, published 2021)
